Data published in PubChem BioAssay (NCI).
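Grown in 96-well plates, cells were treated for 48 hours with each compound at five concentrations. Insufficient inhibition: endpoint recorded as highest concentration tested. TGI: concentration producing complete growth inhibition.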

Key:
Assay in all cases: NCI tumour cell line growth inhibition, 48 h
786-0 renal = test system: 786-0 renal
A498 renal = test system: A498 renal
A549 NSCLC = test system: A549 NSCLC
ACHN renal = test system: ACHN renal
BT-549 breast = test system: BT-549 breast
CAKI-1 renal = test system: CAKI-1 renal
CCRF-CEM leukemia = test system: CCRF-CEM leukemia
COLO 205 colon = test system: COLO 205 colon
DU-145 prostate = test system: DU-145 prostate
EKVX NSCLC = test system: EKVX NSCLC
HCC-2998 colon = test system: HCC-2998 colon
HCT-116 colon = test system: HCT-116 colon
HCT-15 colon = test system: HCT-15 colon
HOP-62 NSCLC = test system: HOP-62 NSCLC
HS 578T breast = test system: HS 578T breast
HT29 colon = test system: HT29 colon
IGROV1 ovarian = test system: IGROV1 ovarian
KM12 colon = test system: KM12 colon
LOX IMVI melanoma = test system: LOX IMVI melanoma
M14 melanoma = test system: M14 melanoma
MALME-3M melanoma = test system: MALME-3M melanoma
MCF7 breast = test system: MCF7 breast
MDA-MB-231 breast = test system: MDA-MB-231 breast
MDA-MB-435 = test system: MDA-MB-435
MDA-N = test system: MDA-N
MOLT-4 leukemia = test system: MOLT-4 leukemia
NCI-H226 lung = test system: NCI-H226 lung
NCI-H460 lung = test system: NCI-H460 lung
NCI-H522 lung = test system: NCI-H522 lung
NCI/ADR-RES ovarian = test system: NCI/ADR-RES ovarian
OVCAR-3 ovarian = test system: OVCAR-3 ovarian
OVCAR-4 ovarian = test system: OVCAR-4 ovarian
OVCAR-5 ovarian = test system: OVCAR-5 ovarian
OVCAR-8 ovarian = test system: OVCAR-8 ovarian
PC-3 prostate = test system: PC-3 prostate
RPMI-8226 leukemia = test system: RPMI-8226 leukemia
RXF 393 renal = test system: RXF 393 renal
SF-268 CNS = test system: SF-268 CNS
SF-295 CNS = test system: SF-295 CNS
SK-MEL-2 melanoma = test system: SK-MEL-2 melanoma
SK-MEL-28 melanoma = test system: SK-MEL-28 melanoma
SK-MEL-5 melanoma = test system: SK-MEL-5 melanoma
SK-OV-3 ovarian = test system: SK-OV-3 ovarian
SN12C renal = test system: SN12C renal
SNB-19 CNS = test system: SNB-19 CNS
SNB-75 CNS = test system: SNB-75 CNS
SR leukemia = test system: SR leukemia
SW-620 colon = test system: SW-620 colon
T-47D breast = test system: T-47D breast
TK-10 renal = test system: TK-10 renal
U251 CNS = test system: U251 CNS
UACC-257 melanoma = test system: UACC-257 melanoma
UACC-62 melanoma = test system: UACC-62 melanoma
UO-31 renal = test system: UO-31 renal

Cc1sc2c(c1C)/C(=N\O)c1cccn1-2 was tested, and the TGI (786-0 renal) was 52.3 µM, the TGI (A498 renal) was 75.9 µM and the TGI (A549 NSCLC) was > 100 µM. For the same molecule, the TGI (ACHN renal) was > 100 µM, the TGI (BT-549 breast) was > 100 µM and the TGI (CAKI-1 renal) was > 100 µM. The TGI (CCRF-CEM leukemia) was > 100 µM, the TGI (COLO 205 colon) was > 100 µM and the TGI (DU-145 prostate) was > 100 µM. For the same molecule, the TGI (EKVX NSCLC) was > 100 µM, the TGI (HCC-2998 colon) was > 100 µM and the TGI (HCT-116 colon) was > 100 µM. For the same molecule, the TGI (HCT-15 colon) was > 100 µM, the TGI (HOP-62 NSCLC) was 63.3 µM and the TGI (HS 578T breast) was 46 µM. The TGI (HT29 colon) was > 100 µM, the TGI (IGROV1 ovarian) was > 100 µM and the TGI (KM12 colon) was > 100 µM. For the same molecule, the TGI (LOX IMVI melanoma) was > 100 µM, the TGI (M14 melanoma) was > 100 µM and the TGI (MALME-3M melanoma) was > 100 µM. For the same molecule, the TGI (MCF7 breast) was > 100 µM, the TGI (MDA-MB-231 breast) was > 100 µM and the TGI (MDA-MB-435) was > 100 µM. For the same molecule, the TGI (MDA-N) was > 100 µM, the TGI (MOLT-4 leukemia) was > 100 µM and the TGI (NCI-H226 lung) was > 100 µM. The TGI (NCI-H460 lung) was > 100 µM, the TGI (NCI-H522 lung) was > 100 µM and the TGI (NCI/ADR-RES ovarian) was > 100 µM. The TGI (OVCAR-3 ovarian) was > 100 µM, the TGI (OVCAR-4 ovarian) was > 100 µM and the TGI (OVCAR-5 ovarian) was > 100 µM. For the same molecule, the TGI (OVCAR-8 ovarian) was > 100 µM, the TGI (PC-3 prostate) was > 100 µM and the TGI (RPMI-8226 leukemia) was > 100 µM. For the same molecule, the TGI (RXF 393 renal) was 65.5 µM, the TGI (SF-268 CNS) was > 100 µM and the TGI (SF-295 CNS) was > 100 µM. For the same molecule, the TGI (SK-MEL-2 melanoma) was > 100 µM, the TGI (SK-MEL-28 melanoma) was > 100 µM and the TGI (SK-MEL-5 melanoma) was > 100 µM. The TGI (SK-OV-3 ovarian) was > 100 µM, the TGI (SN12C renal) was > 100 µM and the TGI (SNB-19 CNS) was 63.2 µM. For the same molecule, the TGI (SNB-75 CNS) was 41.1 µM, the TGI (SR leukemia) was > 100 µM and the TGI (SW-620 colon) was > 100 µM. The TGI (T-47D breast) was > 100 µM, the TGI (TK-10 renal) was > 100 µM and the TGI (U251 CNS) was 69.7 µM. The TGI (UACC-257 melanoma) was > 100 µM, the TGI (UACC-62 melanoma) was > 100 µM and the TGI (UO-31 renal) was > 100 µM.
